Experiments:
[1] = tested on: Human dermal fibroblasts (HF cells); experiment: Cell protection assay, glucose/glucose oxidase toxicity, XTT; format: cell-based
Protocol: Human dermal fibroblasts (HF cells) were obtained from the American type tissue Culture Collection at passage 1 and cultured and propagated in a medium (HF medium) consisting of Dulbecco's Modified Eagle's Medium with 4.5 g/l D-glucose, 10% calf serum 4 mM glutamine, 50 units/ml penicillin, and 50 μg/ml streptomycin in a 37° C. humidified incubator equilibrated with 5% CO2. Cells were used at passages 5 or 6 for experiments. For cell protection assays, HF cells were seeded at a density of about 15,000 cells per cm2 onto 96-well culture plates and allowed to grow to confluence. To assess protection tert-butylhydroperoxide (t-BHP) toxicity, confluent cell layers were first treated with the indicated concentrations of test compounds dissolved in HF medium for 18 hr. The medium was then replaced with fresh medium containing test compounds and 0.5 mM tert-butylhydroperoxide (t-BHP) and cells were incubated for another 18 hr. The medium was then removed and replaced with fresh HF medium (100 μl per well) without test compounds or t-BHP. Fifty μl of XTT reagent (Boeringer Mannheim, Inc.), prepared as described by the manufacturer, was then added to each well and the plates returned to the incubator. After 2 hr., the absorbance at 490 nm was measured in a BioRad (Richmond, Calif.) Model 3550 plate-reader, using a reference wavelength of 655 nm. Control cells that had not been exposed to test compounds or toxic agents were included among the samples treated with XTT reagent. Absorbance measurements for blank wells, containing HF medium and XTT reagent but no cells, were also determined. To analyze protection from glucose/glucose oxidase toxicity, confluent cell layers were incubated with HF medium containing glucose oxidase (0.019 units/ml) along with test compounds, as indicated, for 18 hr in the tissue culture incubator. Fresh HF medium was then added and cell viability assessed using the XTT reagent as described above. For both these models, concentrations of toxic agents were selected that were reproducibly completely lethal. Cytotoxicity assessments were routinely confirmed by visual inspection of the cell layers prior to addition of the XTT reagent.
(§1) Catalase and peroxidase activities were assayed as described in Example 2. Catalase assays contained 10 μM salen-manganese complex and 10 mM hydrogen peroxide. Peroxidase assays contained 10 μM salen-manganese complex and 0.2 mM hydrogen peroxide. Glucose-glucose oxidase toxicity assays were performed using human dermal fibroblasts as described in Example 2.

[2] = SOD activity, xanthine/xanthine oxidase with cytochrome C as acceptor (Example 2); format: biochemical; conditions: for SOD: relative to C7 (C7 = 100)
Protocol: Superoxide dismutase (SOD) activity was assayed by following the inhibition of the reduction of an electron acceptor molecule in the presence of the free-radical generating system xanthine/xanthine oxidase (McCord et al. (1973) Superoxide and Superoxide Dismutase in “Oxidases and Related Redox Systems, vol. I, King et al. eds., University Park press, Baltimore, pp. 51-76). The assay mixture consisted of 50 mM sodium phosphate, pH 7.8, 120 μM xanthine, 0.2 units/ml xanthine oxidase, with acceptor molecule and salen manganese compound, as indicated. Assays were conducted at 27±0.2° C. using a water-jacketed cell holder in a Beckman DU7400 spectrophotometer. In most cases, oxidized cytochrome c, at 0.13 mg/ml, was employed as acceptor and its reduction was monitored spectrophotometrically at 550 nm. In some experiments, nitroblue tetrazolium (NBT), at 80 μM, was substituted for cytochrome c as the acceptor. NBT reduction was also monitored at 550 nm. An estimated extinction coefficient for NBT reduction, 20,800 M^−1cm^−1, determined empirically by exhaustive reduction of NBT in the reaction mixture described above, was employed where indicated. […] Conversion of xanthine to urate was calculated using ε290's of […] for urate and 4050 M^−1cm^−1 for xanthine. […] For each compound, at least four different concentrations were tested in duplicate.

[3] = Peroxidase activity, H2O2-dependent oxidation of ABTS (Example 2); format: biochemical; conditions: for Peroxidase: relative to C7 (C7 = 100)
Protocol: Peroxidase activity was assayed by monitoring the hydrogen peroxide-dependent oxidation of 2,2′-azino-bis(3-ethylbenzthiazoline-6) sulfonic acid (ABTS) spectrophotometrically. Standard assay mixtures consisted of 50 mM sodium phosphate, pH 8.1, 0.9% sodium chloride, 0.5 mM ABTS, and H2O2 and salen manganese complex as indicated. Where indicated, 50 mM sodium phosphate buffers of pH 6.0 or pH 7.1 were substituted. Assays were conducted at 27±0.2° C. ABTS oxidation was monitored at 740 or 500 nm to eliminate interference by the salen manganese complexes, many of which absorb in the vicinity of the λmax of oxidized ABTS, and to avoid absorbance values that exceeded the linear range of the spectrophotometer. The amount of oxidized ABTS was estimated using an Δε740 of 20,300 M^−1cm^−1 or an Δε500 of 3400 M^−1cm^−1 calculated based upon the published molar extinction coefficient oat 405 nm (36,800).
as §1

[4] = Catalase activity, conversion of H2O2 to oxygen, polarographic oxygen electrode (Example 2); format: biochemical; conditions: for Catalase endpt. / Catalase rate: relative to C7 (C7 = 100)
Protocol: Catalase activity was assayed by monitoring the conversion of H2O2 to oxygen using a Clark-type polarographic oxygen electrode. The apparatus consisted of a Mini Clark Style electrode, a 600 μl Oxygen Uptake Chamber, and a Chemical Microsensor system, all obtained from Diamond General Corporation (Ann Arbor, Mich.). The electrode was calibrated by immersion in nitrogen- or air-equilibrated buffers using a Dual Chamber Calibration Cell (Diamond General,. Corp.). Catalase reaction mixtures consisted of 50 mM sodium phosphate, pH 8.1, 0.9% sodium chloride, and salen manganese complex and H2O2 at the indicated concentrations. The temperature of the water-jacketed reaction chamber, as well as the calibration buffers, was maintained at 25±0.1° C. Data were collected at 1 sec intervals and stored-on a MacIntosh II computer using data acquisition hardware and software by Strawberry Tree, Inc. (Sunnyvale, Calif.). Dissolved oxygen concentrations were calculated as described previously (Del Rio et al. (1977) Anal. Biochem. 80: 409) based on a value of 2.5×10^−4 M oxygen for air-saturated buffer at 25° C. Linearity of the dissolved oxygen measurements within the experimental range was continued by determining the amount of oxygen generated from known quantities of H2O2 during exhaustive treatment with bovine liver catalase. Stock solutions of H2O2 were prepared by diluting a commercial 30% H2O2 solution in water and the H2O2 concentrations in these stocks were determined by absorbance at 240 nm, using a molar extinction coefficient of 44 (Stadtman, E R. et al. (1990) Proc. Natl. Acad. Sci. USA 87: 384). […] In the absence of salen manganese complex, H2O2 alone typically produced an early, relatively slow increase in signal. The slope of this increased signal was not proportional to H2O2 concentration (for example in one experiment, 1 and 10 Mm H2O2 yielded apparent rates of 12 and 14 μM oxygen per min, respectively) and may be due to an electrode artifact. […] Where presented, initial rates were calculated by determining the slope of the linear portion of time dependent plots of oxygen generation, usually comprising the first five seconds of the reaction. Unless otherwise indicated, these were corrected by subtracting the rate obtained with H2O2 alone. Where presented, endpoint oxygen generated was calculated from time-dependent plots, such as those shown in FIG. 14, as the difference between the baseline oxygen concentration immediately prior to substrate addition and the maximal oxygen concentration achieved during the course of the reaction. All reactions subjected to these calculations were run for a sufficient time to ensure that oxygen generation had ceased.
as §1

[5] = 29 units/ml bovine liver catalase added, 10 mM H2O2

Molecule	SOD [2]	Peroxidase [3]	Catalase endpt. [4]	Catalase rate [4]	other results
COc1ccc2c(c1)C=NCCN=Cc1cc(OC)ccc1[O][Mn]([O]C(C)=O)[O]2 [Compound C38]	100	129			protection against glucose and glucose oxidase ([1]; 80 μM, glucose oxidase 0.019 units/ml): highly protective; Peroxidase rate ([3]; 10 μM salen manganese complex, 0.2 mM H2O2): 19.8 ± 0.4 μM ABTS oxidized/min
COc1cc2c(c(OC)c1)[O][Mn]([O]C(C)=O)[O]c1c(cc(OC)cc1OC)C=NCCN=C2 [Compound C42]	130	171	379	231	
CC(=O)[O][Mn]1[O]c2ccccc2C=Nc2cccnc2N=Cc2ccccc2[O]1 [Compound C43]	57	71	494	446	
COc1cccc2c1[O][Mn]([O]C(C)=O)[O]c1c(cccc1OC)C=Nc1ncccc1N=C2 [Compound C45]	83	24	674	357	
COc1cccc2c1[O][Mn]([O]C(C)=O)[O]c1c(cccc1OC)C=Nc1ccccc1N=C2 [Compound C48]	91	88	741	485	
COc1cccc2c1[O][Mn]([Cl])[O]c1c(cccc1OC)C=NC1CCCCC1N=C2 (stereo not drawn) [Compound C49]	88	138	285	123	
[O]=[V]1[O]c2ccccc2C=NCCN=Cc2ccccc2[O]1 [Compound C53]	Noncatalytic	0	0	0	SOD activity (in words) [2]: noncatalytic SOD activity
O=[N+]([O-])[Mn]1[O]c2ccccc2C=NCCN=Cc2ccccc2[O]1 [Compound C56]	200	107			
C1=NCCN=Cc2ccccc2[O][Zn][O]c2ccccc21 [Compound C60]	0	0			
C1=NCCN=Cc2ccccc2[O][Cu][O]c2ccccc21 [Compound C63]	0	0			
CCOc1cccc2c1[O][Mn]([Cl])[O]c1c(cccc1OCC)C=NCCN=C2 [Compound C67]	94	134	256	159	
CCOc1cccc2c1[O][Mn]([O]C(C)=O)[O]c1c(cccc1OCC)C=NCCN=C2 [Compound C68]	88	162	326	196	
CC(=O)[O][Mn]1[O]c2ccccc2C(C)=NCCN=C(C)c2ccccc2[O]1 [Compound C85]	38	0	19	31	
bovine liver catalase: bovine liver catalase enzyme used as reference (protein, UniProt P00432 2-527, looked up) Catalase: ADNRDPASDQMKHWKEQRAAQKPDVLTTGGGNPVGDKLNSLTVGPRGPLLVQDVVFTDEMAHFDRERIPERVVHAKGAGAFGYFEVTHDITRYSKAKVFEHIGKRTPIAVRFSTVAGESGSADTVRDPRGFAVKFYTEDGNWDLVGNNTPIFFIRDALLFPSFIHSQKRNPQTHLKDPDMVWDFWSLRPESLHQVSFLFSDRGIPDGHRHMNGYGSHTFKLVNANGEAVYCKFHYKTDQGIKNLSVEDAARLAHEDPDYGLRDLFNAIATGNYPSWTLYIQVMTFSEAEIFPFNPFDLTKVWPHGDYPLIPVGKLVLNRNPVNYFAEVEQLAFDPSNMPPGIEPSPDKMLQGRLFAYPDTHRHRLGPNYLQIPVNCPYRARVANYQRDGPMCMMDNQGGAPNYYPNSFSAPEHQPSALEHRTHFSGDVQRFNSANDDNVTQVRTFYLKVLNEEQRKRLCENIAGHLKDAQLFIQKKAVKNFSDVHPEYGSRIQALLDKYNEEKPKNAVHTYVQHGSHLSAREKANL					protection against glucose and glucose oxidase ([1]; 290 units/ml): full protection; protection against glucose and glucose oxidase ([1]; ten-fold lower dose than 290 units/ml): only partially protective; rate of oxygen production ([4]; 19 units/ml, 2.3 mM H2O2): ~0.33 mM/min; effect on rate of cytochrome C reduction by xanthine oxidase ([2]; 29 units/ml): did not affect; peroxidase activity toward ABTS ([3]; 19 units/ml, pH 6.0, 7.1, 8.1): no peroxidase activity; reduction of initial rate of ABTS oxidation by C7 [3, 5]: 55%; total ABTS oxidized by C7 [3, 5]: 18 µM

— patent publication US7582786B2, “Synthetic catalytic free radical scavengers useful as antioxidants for prevention and therapy of disease” (Eukarion Inc., priority 1996, dated 2009)
